Assay results reported in patent publication US6069160A, “Heteroatom-containing benzocyclopentane-oxazolidinones” (Bayer Aktiengesellschaft, priority 1995, dated 2000).
≈ marks a conversion by molar mass, not a printed value. Read-outs that look alike come from different tables or passages of the source. Blank lines part the entries; values can stand above or below the compound they belong to.

Legend:
Type in all cases: cell-based
[1] = test system: Klebs. 57 USA; test: MIC by series dilution method; conditions: 37° C., about 20 hours
Protocol: (§1) The minimum inhibitory concentration (MIC) were determined by a series dilution method on Iso-Sensitest agar (Oxoid). For each test substance, a series of agar plates each comprising concentrations of the active compound decreasing by double dilution in each case was prepared. The agar plates were inoculated with a multipoint inoculator (Denley). Overnight cultures of the pathogens which had been diluted beforehand such that each inoculation point comprised about 10^4 colony-forming particles were used for the inoculation. The inoculated agar plates were incubated at 37° C. and the germ growth was read off after about 20 hours. The MIC value (μg/ml) indicates the lowest active compound concentration at which no growth was detectable with the naked eye.

[2] = test system: E. coli Neumann; test: MIC by series dilution method; conditions: Escherichia coli
Protocol: as §1

[3] = test system: Psdm. Bonn; test: MIC by series dilution method; conditions: 37° C., about 20 hours
Protocol: as §1

[4] = test system: Staph. 133; test: MIC by series dilution method
Protocol: as §1, with “eye. […]” for “eye.”

[5] = test system: Staph. 25701; test: MIC by series dilution method
Protocol: as §1, with “eye. […]” for “eye.”

[6] = test system: Staph. 48N; test: MIC by series dilution method
Protocol: as §1, with “eye. […]” for “eye.”

[7] = test system: Staph. 9TV; test: MIC by series dilution method
Protocol: as §1, with “eye. […]” for “eye.”

[8] = test system: Mycobacterium smegmacis DSM 43061; test: MIC in microtiter plates (Mycobacterium); conditions: DSM43061, 37° C., 3 to 5 days
Protocol: (§2) The microtiter plates were incubated at 37° C. and read off after about 20 hours (Staph) or after 3 to 5 days (Mycobacterium). The MIC value (μg/ml) indicates the lowest concentration of active substance at which no growth was detectable.

[9] = test system: Mycobacterium smegmacis DSM 43464; test: MIC in microtiter plates (Mycobacterium); conditions: DSM43464, 37° C., 3 to 5 days
Protocol: as §2

[10] = test system: Mycobacterium smegmacis DSM 43078; test: MIC in microtiter plates (Mycobacterium); conditions: DSM43078, 37° C., 3 to 5 days
Protocol: as §2

[11] = test system: Mycobacterium smegmacis DSM 43465; test: MIC in microtiter plates (Mycobacterium); conditions: DSM43465, 37° C., 3 to 5 days
Protocol: as §2

[12] = test system: Mycobacterium smegmacis DSM 43299; test: MIC in microtiter plates (Mycobacterium); conditions: DSM43299, 37° C., 3 to 5 days
Protocol: as §2

[13] = test system: Mycobacterium smegmacis DSM 43277; test: MIC in microtiter plates (Mycobacterium); conditions: DSM43277, 37° C., 3 to 5 days
Protocol: as §2

[14] = Staph. 133, 37° C., about 20 hours, read-out: MIC
[15] = Staph. 25701, 37° C., about 20 hours, read-out: MIC
[16] = Staph. 48N, 37° C., about 20 hours, read-out: MIC
[17] = Staph. 9TV, 37° C., about 20 hours, read-out: MIC
[18] = E. coli Neumann, 37° C., about 20 hours, read-out: MIC

Compound: Cn1c(=O)sc2cc(N3C[C@H](CNC(=O)C4CCC4)OC3=O)ccc21 [Example 62]
MIC [1]: > 64 µg/mL | MIC ([2]; 20 h): > 64 µg/mL | MIC [3]: > 64 µg/mL | MIC [4, 14]: 1 µg/mL (≈ 2.77 µM) | MIC [5, 15]: 1 µg/mL (≈ 2.77 µM) | MIC [6, 16]: 1 µg/mL (≈ 2.77 µM) | MIC [7, 17]: 0.5 µg/mL (≈ 1.38 µM)

MIC [8]: 4 µg/mL (≈ 11.5 µM) | MIC [9]: 16 µg/mL (≈ 46.1 µM) | MIC [10]: 1 µg/mL (≈ 2.88 µM) | MIC [11]: 4 µg/mL (≈ 11.5 µM) | MIC [12]: 4 µg/mL (≈ 11.5 µM) | MIC [13]: 2 µg/mL (≈ 5.76 µM)
Compound: Cn1c(=O)sc2cc(N3C[C@H](CNC(=O)C4CC4)OC3=O)ccc21 [Example 54]

Compound: COP(=O)(NC[C@H]1CN(c2ccc3c(c2)sc(=O)n3C)C(=O)O1)OC [Example 17]
MIC [1]: > 64 µg/mL | MIC ([2]; 20 h): > 64 µg/mL | MIC [3]: > 64 µg/mL | MIC ([4]; 20 h): 8 µg/mL (≈ 20.7 µM) | MIC ([5]; 20 h): 8 µg/mL (≈ 20.7 µM) | MIC ([6]; 20 h): 8 µg/mL (≈ 20.7 µM) | MIC ([7]; 20 h): 8 µg/mL (≈ 20.7 µM)

Compound: CC(=O)NC[C@H]1CN(c2ccc3c(c2)oc(=S)n3C)C(=O)O1 [Example 43]
MIC [1]: > 64 µg/mL | MIC [2, 18]: > 32 µg/mL | MIC [3]: > 64 µg/mL | MIC [4, 14]: 0.25 µg/mL (≈ 0.778 µM) | MIC [5, 15]: 0.25 µg/mL (≈ 0.778 µM) | MIC [6, 16]: 0.125 µg/mL (≈ 0.389 µM) | MIC [7, 17]: 0.125 µg/mL (≈ 0.389 µM)

Compound: CCCCCn1c(=O)oc2cc(N3C[C@H](CNC(C)=O)OC3=O)ccc21 [Example 84]
MIC [1]: > 64 µg/mL | MIC ([2]; 20 h): 64 µg/mL (≈ 177 µM) | MIC [3]: > 64 µg/mL | MIC [4, 14]: 1 µg/mL (≈ 2.77 µM) | MIC [5, 15]: 1 µg/mL (≈ 2.77 µM) | MIC [6, 16]: 1 µg/mL (≈ 2.77 µM) | MIC [7, 17]: 0.5 µg/mL (≈ 1.38 µM)

Compound: CC(=O)NC[C@H]1CN(c2ccc3c(c2)oc(=O)n3C(C)C)C(=O)O1 [Example 47]
MIC [1]: 64 µg/mL (≈ 192 µM) | MIC [2, 18]: 32 µg/mL (≈ 96 µM) | MIC [3]: > 64 µg/mL | MIC [4, 14]: 0.5 µg/mL (≈ 1.5 µM) | MIC [5, 15]: 0.5 µg/mL (≈ 1.5 µM) | MIC [6, 16]: 0.5 µg/mL (≈ 1.5 µM) | MIC [7, 17]: 0.25 µg/mL (≈ 0.75 µM)

Compound: CC(=O)NC[C@H]1CN(c2ccc3c(c2)oc(=O)n3C)C(=O)O1 [Example 37]
MIC [1]: 64 µg/mL (≈ 210 µM) | MIC [2, 18]: 16 µg/mL (≈ 52.4 µM) | MIC [3]: 64 µg/mL (≈ 210 µM) | MIC [4, 14]: 1 µg/mL (≈ 3.28 µM) | MIC [5, 15]: 1 µg/mL (≈ 3.28 µM) | MIC [6, 16]: 1 µg/mL (≈ 3.28 µM) | MIC [7, 17]: 0.5 µg/mL (≈ 1.64 µM)

Compound: COC(=O)NC[C@H]1CN(c2ccc3c(c2)sc(=O)n3C)C(=O)O1 [Example 70]
MIC [8]: 0.25 µg/mL (≈ 0.741 µM) | MIC [9]: 8 µg/mL (≈ 23.7 µM) | MIC [10]: 0.125 µg/mL (≈ 0.371 µM) | MIC [11]: 1 µg/mL (≈ 2.96 µM) | MIC [12]: 2 µg/mL (≈ 5.93 µM) | MIC [13]: 0.5 µg/mL (≈ 1.48 µM) | MIC [1]: > 64 µg/mL | MIC ([2]; 20 h): > 64 µg/mL | MIC [3]: > 64 µg/mL | MIC [4, 14]: 0.5 µg/mL (≈ 1.48 µM) | MIC [5, 15]: 0.5 µg/mL (≈ 1.48 µM) | MIC [6, 16]: 0.5 µg/mL (≈ 1.48 µM) | MIC [7, 17]: 0.5 µg/mL (≈ 1.48 µM)
